US20090247636A1, “AGENT FOR SUPPRESSION OF GASTRIC EMPTYING COMPRISING 4-HYDROXYISOLEUCINE” (AJINOMOTO CO., INC.,, priority 2006, published 2009)

Key:
[1] = in vivo; cited from earlier work
insulin secretion = conditions: in vitro; cited from earlier work
gastric emptying = test: Gastric emptying-suppressive action (phenol red test meal); type: in vivo, Sprague Dawley rats; conditions: 500 mg/kg oral, test meal 1 hour later, stomach isolated after 90 minutes, vs vehicle, p<0.05, FIG. 1
Description: Male Sprague Dawley rats (12 weeks of age, Charles River Laboratories Japan Inc.) (n=5) were used. After fasting for 20 hours, distilled water for injection (5 mL/kg) was orally administered to a vehicle group and 4-hydroxyisoleucine (500 mg/5 mL/kg) was orally administered to a 4-hydroxyisoleucine administration group. One hour later, a test meal (1.5% methylcellulose, 0.05% phenol red, 1.5 ml) was orally administered. After 90 minutes, the stomach was isolated under an ether anesthesia, the gastric contents were recovered and the remaining phenol red was quantified. A control group was prepared. After fasting for 20 hours, a test meal (1.5% methylcellulose, 0.05% phenol red, 1.5 mL) was orally administered. Immediately after administration of the test meal, the stomach was isolated under an ether anesthesia, the gastric contents were recovered and the remaining phenol red was quantified. The gastric emptying was calculated by the following formula.
Gastric emptying (%)=(1-phenol red amount of each individual/average phenol red amount of control group*)×100*:test meal alone was administered, n=2
The difference between the 4-hydroxyisoleucine (HIL) administration group and the distilled water for injection (vehicle) administration group was detected according to Student's t test, and p<0.05 was judged as significant.

body weight gain = conditions: high-fat diet-fed mouse; cited from earlier work
food intake = test: Food intake suppressive action (cumulative feed intake); type: in vivo, Wistar rats; conditions: 500 mg/kg oral after fasting for 9 hours, vs vehicle, p<0.05, FIG. 2
Description: Male Wistar rats (7 weeks of age, Charles River Laboratories Japan Inc.) (n=5) were used. After fasting for 9 hours, distilled water for injection (5 mL/kg) or 4-hydroxyisoleucine (50, 150, 500 mg/5 mL/kg) was orally administered at 18:00. Immediately thereafter, feeding was started. The cumulative feed intake was measured at 30 min, 1 hr, 3 hr and 16 hr after the administration. […] The difference between the 4-hydroxyisoleucine administration group and the distilled water for injection (vehicle) administration group was detected according to Student's t test, and p<0.05 was judged as significant.

**Q.** Which antidiabetic action [1] does the source give for `C[C@@H]([C@H](C)O)[C@H](N)C(=O)O` [4-hydroxyisoleucine] here?
**A.** an antidiabetic action

**Q.** And the insulin secretagogue action (insulin secretion)?
**A.** shows an insulin secretagogue action

**Q.** What about the “Gastric emptying (%)” value (gastric emptying) of the same compound?
**A.** significantly suppressed

**Q.** What about the “suppression of body weight gain” value (body weight gain) of the same compound?
**A.** does not show such action

**Q.** What about the “food intake (cumulative feed intake)” value (food intake) of the same compound?
**A.** significantly suppressed
